Source: paper PMC12376128, “In vitro and In Vivo Drug Metabolism Analysis of BPI-460372 - A Covalent TEAD1/3/4 Inhibitor” (Current Drug Metabolism, 2025)
One block for each compound: values may come before it.

Legend:
[1] = Metabolite identification in rat plasma, urine, feces and bile; format: in vivo, SD rats; conditions: for Relative abundance of MS peak areas, Rat Bile 0-48 h / Relative abundance of MS peak areas, Rat Feces 0-48 h / Relative abundance of MS peak areas, Rat Urine 0-48 h: oral 6 mg/kg BPI-460372, average of male and female pooled samples; for Relative abundance of MS peak areas, Rat Plasma 0-24 h: oral 12 mg/kg BPI-460372, average of male and female pooled samples
Experimental: (§1) The plasma samples were acquired from SD rats (n=6, 3 female and 3 male) and beagle dogs (n=6, 3 female and 3 male) after administration of 12 mg/kg and 8 mg/kg of BPI-460372, respectively. The rat urine, feces, and bile samples were acquired in SD rats after administration of 6 mg/kg of BPI-460372.
(§2) Equal volume from each rat was pooled together to get 1 male and 1 female 0-24 h plasma samples. An equal percentage by volume of individual urine sample (0-8, 8-24, and 24-48 h) from 3 female and 3 male rats was pooled by time interval across rats, respectively, resulting in two pooled urine samples (1 male and 1 female). An equal percentage by weight of individual feces samples (0-8, 8-24, and 24-48 h) was pooled by time interval across female and male rats, resulting in two pooled fecal samples. An equal percentage by volume of individual bile samples (0-4, 4-8, 8-24, and 24-48 h) was pooled by time interval across female and male rats, resulting in two pooled bile samples. […] Equal volumes from 3 female and 3 male rats were pooled together to get two 0-48 h plasma samples. For blank samples of plasma, urine, and bile, equal volume was pooled across subjects. For a blank sample of feces, equal weight was pooled across rats.
(§3) The pooled plasma, feces, and bile samples were extracted by adding 3-fold volume of acetonitrile, and the mixture was vortexed (1 min) and sonicated (1 min) before centrifugation (7220 g, 5 min). The pooled urine samples were centrifuged (7220 g, 5 min). Then the supernatant was transferred into a clean tube and evaporated to dryness under the nitrogen stream. The residues were redissolved with an appropriate volume of acetonitrile/water (20: 80, v: v). After centrifugation, the redissolved solution was transferred into an HPLC vial for UHPLC-Orbitrap-HRMS (15000 g, 10 min, 4°C).

mouse hepatocytes = test: Metabolism and metabolite formation in hepatocytes; format: in vitro ADME, ICR mouse; conditions: for UV (314 nm) Peak Areas Relative Abundance: ICR mouse hepatocytes, 10 µM BPI-460372, 4 h incubation;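 for Area Ratio T0 h: peak area of analyte divided by internal standard peak area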;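 for Area Ratio T4 h: peak area of analyte divided by internal standard peak area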
Source text: (§4) All the samples were duplicates.

monkey hepatocytes = test: Metabolism and metabolite formation in hepatocytes; format: in vitro ADME, cynomolgus monkey; conditions: for UV (314 nm) Peak Areas Relative Abundance: cynomolgus monkey hepatocytes, 10 µM BPI-460372, 4 h incubation;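 for Area Ratio T4 h: peak area of analyte divided by internal standard peak area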
Source text: as §4

rat hepatocytes = test: Metabolism and metabolite formation in hepatocytes; format: in vitro ADME, SD rat; conditions: for UV (314 nm) Peak Areas Relative Abundance: SD rat hepatocytes, 10 µM BPI-460372, 4 h incubation;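 for Area Ratio T0 h: peak area of analyte divided by internal standard peak area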
Source text: as §4

dog hepatocytes = test: Metabolism and metabolite formation in hepatocytes; format: in vitro ADME, beagle dog; conditions: for UV (314 nm) Peak Areas Relative Abundance: beagle dog hepatocytes, 10 µM BPI-460372, 4 h incubation;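 for Area Ratio T0 h: peak area of analyte divided by internal standard peak area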;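 for Area Ratio T4 h: peak area of analyte divided by internal standard peak area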
Source text: as §4

human hepatocytes = test: Metabolism and metabolite formation in hepatocytes; conditions: human hepatocytes; for UV (314 nm) Peak Areas Relative Abundance: 10 µM BPI-460372, 4 h incubation
Experimental: 10 µM BPI-460372 was incubated in five species (human, cynomolgus monkey, beagle dog, SD rat, and ICR mouse) hepatocytes (1 × 10^6 cells·min^-1) at 37 °C for 4 h. 7-EC, as positive control, was incubated for 0 h and 4 h. For blank control, hepatocytes were inactivated by adding ice-cold acetonitrile, and then the BPI-460372 solution was added. All the samples were duplicates. Incubations were stopped using the same volume of cold acetonitrile. The tube was vortexed, and the duplicate samples were combined. Metabolite profiling and identification of BPI-460372 were conducted by using UHPLC-Orbitrap-HRMS. The samples of 7-EC were analyzed by LC-MS/MS and then semi-quantified using the peak area ratio of analyte versus IS.
For hepatocyte metabolite identification, the different metabolites of BPI-460372 were detected using an ACQUITY UPLC HSS T3 column (1.8 µm, 100 mm × 2.1 mm) and ACQUITY UPLC BEH C18 column (1.7 µm, 100 mm × 2.1 mm) for rat and dog metabolite identification. The mobile phase contained a mixture of 0.1% formic acid in water (A) and 0.1% formic acid in acetonitrile (B). The gradient elution program was as follows: 0.0-1.0 min, 5% B; 1.0-7.0 min, 5%-30% B; 7.0-12.0 min, 30%-80% B; 12.0-16.0 min, 80%-95% B; 16.0-18.0 min, 95% B; 18.0-18.1 min, 95%-5% B. Then, 5% B from 18.1 to 20.0 min was maintained for equilibration. The flow rate was set to 0.5 mL/min, and the column temperature was kept at 40°C. Eluted fractions were monitored by a UV detector at 314 nm.

[2] = Metabolite identification in dog plasma; format: in vivo, beagle dogs; conditions: oral 8 mg/kg BPI-460372, average of male and female pooled samples
Experimental: as §1, §2, §3

Structure (SMILES): C=CC(=O)N1CC(n2c(=O)n(-c3ccc(C(F)(F)F)cc3)c3nccnc32)C1 [M389]
Relative abundance of MS peak areas, Dog Plasma 0-48 h [2]: 0.15% | Relative abundance of MS peak areas, Rat Bile 0-48 h [1]: 0.040% | Relative abundance of MS peak areas, Rat Feces 0-48 h [1]: 16.59% | Relative abundance of MS peak areas, Rat Urine 0-48 h [1]: 0.050% | Relative abundance of MS peak areas, Rat Plasma 0-24 h [1]: 0.67%

Structure (SMILES): O=C(O)[C@H]1O[C@@H](Oc2ccc3ccc(=O)oc3c2)[C@H](O)[C@@H](O)[C@@H]1O [7-EC-GluA, reference compound]
Area Ratio T0 h (mouse hepatocytes; mouse hepatocytes, 7-EC incubation, 0 h): 0.00E+00 | Area Ratio T4 h (mouse hepatocytes; mouse hepatocytes, 7-EC incubation, 4 h): 7.44E+06 | Area Ratio T0 h (monkey hepatocytes; monkey hepatocytes, 7-EC incubation, 0 h): 6.08E+02 | Area Ratio T4 h (monkey hepatocytes; monkey hepatocytes, 7-EC incubation, 4 h): 1.55E+07 | Area Ratio T0 h (rat hepatocytes; rat hepatocytes, 7-EC incubation, 0 h): 1.45E+02 | Area Ratio T4 h (rat hepatocytes; rat hepatocytes, 7-EC incubation, 4 h): 8.08E+05 | Area Ratio T0 h (dog hepatocytes; dog hepatocytes, 7-EC incubation, 0 h): 0.00E+00 | Area Ratio T4 h (dog hepatocytes; dog hepatocytes, 7-EC incubation, 4 h): 1.27E+07 | Area Ratio T0 h (human hepatocytes; 7-EC incubation, 0 h): 1.07E+03 | Area Ratio T4 h (human hepatocytes; 7-EC incubation, 4 h): 3.85E+06

Structure (SMILES): NCC(C(=O)O)n1c(=O)n(-c2ccc(C(F)(F)F)cc2)c2nccnc21 (stereo not drawn) [M367]
Relative abundance of MS peak areas, Dog Plasma 0-48 h [2]: 0.83% | Relative abundance of MS peak areas, Rat Feces 0-48 h [1]: 2.77% | Relative abundance of MS peak areas, Rat Urine 0-48 h [1]: 2.55% | Relative abundance of MS peak areas, Rat Plasma 0-24 h [1]: 0.065%

The remaining lines, values ahead:

Relative abundance of MS peak areas, Rat Bile 0-48 h [1]: 0.10% | UV (314 nm) Peak Areas Relative Abundance (mouse hepatocytes): 1.43% | UV (314 nm) Peak Areas Relative Abundance (monkey hepatocytes): + | UV (314 nm) Peak Areas Relative Abundance (rat hepatocytes): + | UV (314 nm) Peak Areas Relative Abundance (dog hepatocytes): + | UV (314 nm) Peak Areas Relative Abundance (human hepatocytes): +
Structure (SMILES): NC(CCC(=O)NC(CSCC(O)C(=O)N1CC(n2c(=O)n(-c3ccc(C(F)(F)F)cc3)c3nccnc32)C1)C(=O)NCC(=O)O)C(=O)O (stereo not drawn) [M712]

Relative abundance of MS peak areas, Rat Bile 0-48 h [1]: 3.27% | UV (314 nm) Peak Areas Relative Abundance (mouse hepatocytes): 24.76% | UV (314 nm) Peak Areas Relative Abundance (monkey hepatocytes): 3.01% | UV (314 nm) Peak Areas Relative Abundance (rat hepatocytes): 18.4% | UV (314 nm) Peak Areas Relative Abundance (dog hepatocytes): 22.65% | UV (314 nm) Peak Areas Relative Abundance (human hepatocytes): 3.01%
Structure (SMILES): NC(CCC(=O)NC(CSCC(F)C(=O)N1CC(n2c(=O)n(-c3ccc(C(F)(F)F)cc3)c3nccnc32)C1)C(=O)NCC(=O)O)C(=O)O (stereo not drawn) [M714]

Relative abundance of MS peak areas, Rat Bile 0-48 h [1]: 1.52%
Structure (SMILES): NC(CSCC(O)C(=O)N1CC(n2c(=O)n(-c3ccc(C(F)(F)F)cc3)c3cncnc32)C1)C(=O)O (stereo not drawn) [M526]

Relative abundance of MS peak areas, Dog Plasma 0-48 h [2]: 0.36% | Relative abundance of MS peak areas, Rat Feces 0-48 h [1]: 21.50% | Relative abundance of MS peak areas, Rat Urine 0-48 h [1]: 0.015% | Relative abundance of MS peak areas, Rat Plasma 0-24 h [1]: 0.35%
Structure (SMILES): CCC(=O)N1CC(n2c(=O)n(-c3ccc(C(F)(F)F)cc3)c3nccnc32)C1 [M391]
